The source made the active and inactive calls.
Assays:
[1] = target: Protein-tyrosine kinase 2-beta (Homo sapiens, UniProt Q14289);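 also: potency of inhibitors of PYK2 kinase phosphorylation of poly-GT substrate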
[2] = target: Cyclin-dependent kinase 5/CDK5 activator 1 (Homo sapiens, UniProt Q00535); assay: blockade of human CDK5 activity – biochemical, cherry-picked samples, set 2, dose response (AID 504545)
[3] = target: T1, Heat shock factor protein 1 (Mus musculus, UniProt P38532); assay: enhancement of HSF1-driven luciferase signal – cell-based, NIH3T3, luminescence, dose retest, confirmation (AID 435004); format: functional;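 also: stress induced by proteasome inhibitor MG132 added 30 min after compound; luciferase reporter driven by HSF1 response element in NIH3T3 cells; actives raise luminescence as potentiators of the MG132 stress response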
T1 sequence (P38532 whole entry): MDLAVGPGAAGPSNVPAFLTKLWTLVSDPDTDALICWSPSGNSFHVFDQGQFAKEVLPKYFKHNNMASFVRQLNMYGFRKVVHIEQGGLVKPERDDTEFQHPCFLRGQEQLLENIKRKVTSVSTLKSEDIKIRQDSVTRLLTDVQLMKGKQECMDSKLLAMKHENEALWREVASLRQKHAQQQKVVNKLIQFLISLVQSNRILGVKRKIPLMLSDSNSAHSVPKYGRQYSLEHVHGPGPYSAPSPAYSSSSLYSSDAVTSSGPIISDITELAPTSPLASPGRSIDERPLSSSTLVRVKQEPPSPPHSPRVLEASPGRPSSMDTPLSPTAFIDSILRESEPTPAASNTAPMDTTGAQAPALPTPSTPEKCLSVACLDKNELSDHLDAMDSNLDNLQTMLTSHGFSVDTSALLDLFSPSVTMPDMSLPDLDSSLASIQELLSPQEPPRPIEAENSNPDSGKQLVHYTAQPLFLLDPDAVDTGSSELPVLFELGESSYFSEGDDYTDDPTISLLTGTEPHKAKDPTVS

[4] = target: T2, Eukaryotic translation initiation factor 2-alpha kinase 3 (Homo sapiens, UniProt Q9NZJ5); assay: Dose response cell-based high-throughput screening assay to measure PERK inhibition. [Related pubchem assays: 1416 ]; format: functional
T2 sequence (Q9NZJ5 whole entry): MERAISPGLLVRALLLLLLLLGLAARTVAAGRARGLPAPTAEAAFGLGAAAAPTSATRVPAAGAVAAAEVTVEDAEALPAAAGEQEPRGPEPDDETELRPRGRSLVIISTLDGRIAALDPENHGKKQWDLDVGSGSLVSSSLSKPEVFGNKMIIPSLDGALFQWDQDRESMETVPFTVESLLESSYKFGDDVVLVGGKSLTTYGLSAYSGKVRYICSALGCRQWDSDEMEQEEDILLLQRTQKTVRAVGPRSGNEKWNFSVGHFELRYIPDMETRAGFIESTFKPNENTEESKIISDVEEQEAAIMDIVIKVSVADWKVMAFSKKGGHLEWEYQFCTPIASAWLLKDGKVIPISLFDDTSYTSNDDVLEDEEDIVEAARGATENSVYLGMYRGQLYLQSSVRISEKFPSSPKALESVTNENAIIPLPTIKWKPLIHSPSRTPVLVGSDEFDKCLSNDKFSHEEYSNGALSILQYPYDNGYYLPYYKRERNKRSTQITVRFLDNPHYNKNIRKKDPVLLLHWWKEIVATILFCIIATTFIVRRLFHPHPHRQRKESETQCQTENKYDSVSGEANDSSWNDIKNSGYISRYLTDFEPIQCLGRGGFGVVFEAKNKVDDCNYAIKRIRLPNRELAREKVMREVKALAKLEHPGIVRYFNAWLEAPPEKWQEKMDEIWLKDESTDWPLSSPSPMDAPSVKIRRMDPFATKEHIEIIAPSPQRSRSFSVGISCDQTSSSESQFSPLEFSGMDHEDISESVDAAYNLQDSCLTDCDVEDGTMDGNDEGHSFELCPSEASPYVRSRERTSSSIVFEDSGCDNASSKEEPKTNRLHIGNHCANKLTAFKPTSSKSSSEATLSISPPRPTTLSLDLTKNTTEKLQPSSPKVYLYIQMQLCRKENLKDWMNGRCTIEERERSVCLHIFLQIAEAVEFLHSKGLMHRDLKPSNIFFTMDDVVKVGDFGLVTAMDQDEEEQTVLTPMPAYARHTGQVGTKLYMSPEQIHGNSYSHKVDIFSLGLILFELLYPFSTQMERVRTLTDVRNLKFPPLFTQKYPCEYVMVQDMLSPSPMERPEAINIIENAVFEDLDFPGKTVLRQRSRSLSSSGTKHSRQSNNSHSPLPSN

[5] = target: T2, Eukaryotic translation initiation factor 2-alpha kinase 3; assay: Counterscreen assay for PERK inhibitors: Dose response cell-based high throughput screening assay to measure inhibition of PERK at 6 hours. [Related pubchem assays: 1522, 1416 ]; format: functional
Trypsin = Trypsin (Sus scrofa, UniProt P00761); assay: trypsin protease activity blockade – biochemical, quenched peptide fluorescence, cherry-pick, selectivity assay for Rce1 protease inhibitor project, dose response (AID 488789)
Chain of Trypsin (P00761 whole entry): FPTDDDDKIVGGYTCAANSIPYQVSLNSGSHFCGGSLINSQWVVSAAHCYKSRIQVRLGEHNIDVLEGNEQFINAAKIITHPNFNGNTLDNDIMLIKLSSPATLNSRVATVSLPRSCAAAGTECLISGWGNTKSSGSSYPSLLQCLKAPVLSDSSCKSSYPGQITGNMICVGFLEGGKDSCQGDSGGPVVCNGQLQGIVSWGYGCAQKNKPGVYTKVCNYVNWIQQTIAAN

[6] = target: DNA dC->dU-editing enzyme APOBEC-3A (Homo sapiens, UniProt P31941); assay: A3A deaminase inhibition for selectivity – biochemical, dose response (AID 504722); format: functional
Chain of DNA dC->dU-editing enzyme APOBEC-3A (P31941 whole entry): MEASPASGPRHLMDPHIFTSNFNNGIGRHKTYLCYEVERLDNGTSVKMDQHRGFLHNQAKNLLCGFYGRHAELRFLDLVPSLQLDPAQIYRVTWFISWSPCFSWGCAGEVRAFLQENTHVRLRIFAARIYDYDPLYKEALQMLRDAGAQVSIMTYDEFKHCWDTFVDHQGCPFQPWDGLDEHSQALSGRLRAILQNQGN

[7] = target: DNA dC->dU-editing enzyme APOBEC-3G (Homo sapiens, UniProt Q9HC16); assay: Dose Response confirmation of small molecule APOBEC3G DNA Deaminase Inhibitors via a fluorescence-based single-stranded DNA deaminase assay. [Related pubchem assays (depositor defined):AID493012, AID493028]; format: functional
Chain of DNA dC->dU-editing enzyme APOBEC-3G (Q9HC16 whole entry): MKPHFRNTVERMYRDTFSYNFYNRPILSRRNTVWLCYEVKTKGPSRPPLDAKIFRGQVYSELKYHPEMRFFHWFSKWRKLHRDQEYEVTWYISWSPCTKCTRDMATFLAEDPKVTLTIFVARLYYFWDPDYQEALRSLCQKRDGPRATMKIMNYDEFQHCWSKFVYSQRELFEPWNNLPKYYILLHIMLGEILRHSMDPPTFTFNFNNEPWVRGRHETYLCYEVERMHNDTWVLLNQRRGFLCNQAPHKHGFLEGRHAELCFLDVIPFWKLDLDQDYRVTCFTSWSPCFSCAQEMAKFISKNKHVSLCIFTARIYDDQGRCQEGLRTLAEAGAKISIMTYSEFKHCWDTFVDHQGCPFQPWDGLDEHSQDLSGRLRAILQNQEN

HeLa = assay: viability loss in HeLa cells – cell-based, 24 h, cherry-picked samples, cytotoxicity control, dose response (AID 504726); format: functional; details: Homo sapiens;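 also: potency for cytotoxicity as loss of luminescence signal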
ORF 73 = ORF 73 (Human herpesvirus 8, UniProt O40947); assay: KSHV LANA DNA-binding disruption – biochemical, fluorescence polarization, cherry-picked samples, dose response (AID 504725); parameters: species or system Human gammaherpesvirus 8;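 also: fluorescence polarization of a labeled DNA duplex reporting LANA DNA binding; potency is for inhibitors that block LANA binding to the DNA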
Chain of ORF 73 (O40947 whole entry): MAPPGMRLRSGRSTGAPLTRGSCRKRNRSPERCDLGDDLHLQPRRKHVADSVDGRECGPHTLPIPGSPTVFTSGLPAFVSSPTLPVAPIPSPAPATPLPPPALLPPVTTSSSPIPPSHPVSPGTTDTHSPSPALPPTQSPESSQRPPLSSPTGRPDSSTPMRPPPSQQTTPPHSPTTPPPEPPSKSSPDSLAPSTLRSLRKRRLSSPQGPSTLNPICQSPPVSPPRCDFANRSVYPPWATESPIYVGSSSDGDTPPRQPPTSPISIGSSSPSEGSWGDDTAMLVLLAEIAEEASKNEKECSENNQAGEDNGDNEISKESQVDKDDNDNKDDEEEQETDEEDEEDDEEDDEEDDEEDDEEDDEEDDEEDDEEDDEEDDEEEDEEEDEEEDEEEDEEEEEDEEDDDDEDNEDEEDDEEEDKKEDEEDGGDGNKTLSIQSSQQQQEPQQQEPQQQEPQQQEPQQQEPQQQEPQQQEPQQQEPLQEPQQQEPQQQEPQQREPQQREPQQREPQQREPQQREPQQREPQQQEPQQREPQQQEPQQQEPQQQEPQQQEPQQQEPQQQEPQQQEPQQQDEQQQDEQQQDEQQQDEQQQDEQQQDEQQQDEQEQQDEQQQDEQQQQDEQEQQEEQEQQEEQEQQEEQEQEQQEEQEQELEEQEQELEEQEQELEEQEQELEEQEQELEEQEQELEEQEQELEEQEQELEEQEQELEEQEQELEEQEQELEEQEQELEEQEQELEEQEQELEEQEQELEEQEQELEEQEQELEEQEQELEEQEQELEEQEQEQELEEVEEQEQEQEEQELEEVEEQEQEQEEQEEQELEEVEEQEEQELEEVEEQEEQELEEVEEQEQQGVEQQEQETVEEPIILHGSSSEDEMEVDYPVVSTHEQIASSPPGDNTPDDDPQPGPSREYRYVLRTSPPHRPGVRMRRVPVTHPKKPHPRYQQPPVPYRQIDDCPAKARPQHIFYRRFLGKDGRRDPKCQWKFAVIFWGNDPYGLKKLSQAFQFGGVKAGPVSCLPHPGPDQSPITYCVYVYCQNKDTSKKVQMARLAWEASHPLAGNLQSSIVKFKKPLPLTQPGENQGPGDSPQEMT

Insulin-degrading enzyme [8] = target: T3, Insulin-degrading enzyme (Homo sapiens, UniProt P14735); assay: recombinant IDE activation, cell-free – biochemical, fluorescence polarization, counter-screen for IDE activator project, dose response (AID 588681)
T3 sequence (P14735 whole entry): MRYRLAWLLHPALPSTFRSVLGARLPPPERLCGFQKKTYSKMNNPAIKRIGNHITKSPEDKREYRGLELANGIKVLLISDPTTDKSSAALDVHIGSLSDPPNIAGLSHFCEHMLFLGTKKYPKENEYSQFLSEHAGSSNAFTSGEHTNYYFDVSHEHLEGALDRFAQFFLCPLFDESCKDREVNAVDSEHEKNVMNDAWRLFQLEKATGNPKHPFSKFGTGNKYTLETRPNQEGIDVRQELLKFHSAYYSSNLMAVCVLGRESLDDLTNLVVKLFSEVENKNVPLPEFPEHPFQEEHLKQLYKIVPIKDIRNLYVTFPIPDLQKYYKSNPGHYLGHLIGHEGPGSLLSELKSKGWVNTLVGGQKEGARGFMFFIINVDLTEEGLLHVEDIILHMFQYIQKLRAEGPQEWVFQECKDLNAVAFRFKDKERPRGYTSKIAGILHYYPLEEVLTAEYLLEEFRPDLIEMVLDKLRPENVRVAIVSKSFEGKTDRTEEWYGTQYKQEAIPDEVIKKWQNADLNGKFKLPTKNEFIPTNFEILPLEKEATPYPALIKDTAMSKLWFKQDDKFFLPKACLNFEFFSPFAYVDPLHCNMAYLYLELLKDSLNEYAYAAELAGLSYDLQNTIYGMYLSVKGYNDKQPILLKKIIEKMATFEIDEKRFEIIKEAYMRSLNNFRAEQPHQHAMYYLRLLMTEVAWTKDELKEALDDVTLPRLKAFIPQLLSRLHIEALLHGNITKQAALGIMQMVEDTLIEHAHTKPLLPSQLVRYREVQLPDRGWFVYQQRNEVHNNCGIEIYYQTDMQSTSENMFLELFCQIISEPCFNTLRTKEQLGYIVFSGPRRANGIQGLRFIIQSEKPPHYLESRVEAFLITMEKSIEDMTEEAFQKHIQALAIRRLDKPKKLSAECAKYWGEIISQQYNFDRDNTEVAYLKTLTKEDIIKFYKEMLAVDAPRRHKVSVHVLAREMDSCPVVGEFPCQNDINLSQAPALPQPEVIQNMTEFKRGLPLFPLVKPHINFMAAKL

Insulin-degrading enzyme [9] = target: T3, Insulin-degrading enzyme; assay: cellular IDE activation of Abeta substrate cleavage – fluorescence polarization, HEK cells, dose response (AID 588439); format: functional, cell-based
HEK293 = assay: membrane integrity loss in HEK cells – cell-based, fluorescence, cytotoxicity control for IDE activator project, dose response (AID 588440); format: functional, Homo sapiens; details: hek293;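 also: cytotoxicity by LDH release measuring loss of membrane integrity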
[10] = viability loss in HeLa cells – cytotoxicity control for MgcRacGAP inhibitor project, dose response (AID 624300); format: functional
[11] = target: T4, Rac GTPase-activating protein 1 (Homo sapiens, UniProt Q9H0H5); assay: blockers of MgcRacGAP-driven Rac1 GTP hydrolysis – biochemical, ADP Hunter fluorescence, primary and confirmatory, confirmation (AID 624330); format: functional
T4 sequence (Q9H0H5 whole entry): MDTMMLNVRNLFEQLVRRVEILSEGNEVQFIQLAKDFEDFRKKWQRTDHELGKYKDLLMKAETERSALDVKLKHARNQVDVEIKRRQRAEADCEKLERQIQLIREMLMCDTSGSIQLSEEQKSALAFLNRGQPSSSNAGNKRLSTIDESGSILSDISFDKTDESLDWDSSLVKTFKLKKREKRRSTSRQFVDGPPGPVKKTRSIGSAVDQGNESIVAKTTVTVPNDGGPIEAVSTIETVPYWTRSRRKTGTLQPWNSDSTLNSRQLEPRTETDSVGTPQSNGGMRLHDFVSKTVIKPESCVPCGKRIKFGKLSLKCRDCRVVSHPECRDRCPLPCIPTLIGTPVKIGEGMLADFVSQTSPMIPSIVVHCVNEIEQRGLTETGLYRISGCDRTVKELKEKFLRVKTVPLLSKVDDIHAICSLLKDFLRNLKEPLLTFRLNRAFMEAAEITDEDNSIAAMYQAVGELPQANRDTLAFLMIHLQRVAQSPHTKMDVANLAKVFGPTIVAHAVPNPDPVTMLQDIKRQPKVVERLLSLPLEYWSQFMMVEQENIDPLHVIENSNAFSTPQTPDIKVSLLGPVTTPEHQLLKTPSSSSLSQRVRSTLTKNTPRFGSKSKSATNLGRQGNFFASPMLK

[12] = target: Neurotensin receptor type 1 (Homo sapiens, UniProt P30989); format: functional;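 also: Image-based confirmatory dose-response assay measuring agonist activity at NTR1; NTR1-expressing U2OS osteosarcoma cells imaged for beta-arrestin GFP spot formation; agonist potency where compounds increase beta-arrestin recruitment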
Chain of Neurotensin receptor type 1 (P30989 whole entry): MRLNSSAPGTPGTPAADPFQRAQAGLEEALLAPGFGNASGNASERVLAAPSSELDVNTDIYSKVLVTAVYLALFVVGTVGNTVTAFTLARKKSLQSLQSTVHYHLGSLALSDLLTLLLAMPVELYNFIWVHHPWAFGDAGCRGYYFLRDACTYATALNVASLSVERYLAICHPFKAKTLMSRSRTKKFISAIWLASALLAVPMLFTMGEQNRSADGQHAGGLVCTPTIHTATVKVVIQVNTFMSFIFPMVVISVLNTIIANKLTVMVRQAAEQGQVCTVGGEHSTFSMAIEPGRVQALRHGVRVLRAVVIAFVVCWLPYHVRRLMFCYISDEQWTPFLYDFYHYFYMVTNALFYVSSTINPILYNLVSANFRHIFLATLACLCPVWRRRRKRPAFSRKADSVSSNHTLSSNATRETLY

Chain of Protein-tyrosine kinase 2-beta (Q14289 whole entry): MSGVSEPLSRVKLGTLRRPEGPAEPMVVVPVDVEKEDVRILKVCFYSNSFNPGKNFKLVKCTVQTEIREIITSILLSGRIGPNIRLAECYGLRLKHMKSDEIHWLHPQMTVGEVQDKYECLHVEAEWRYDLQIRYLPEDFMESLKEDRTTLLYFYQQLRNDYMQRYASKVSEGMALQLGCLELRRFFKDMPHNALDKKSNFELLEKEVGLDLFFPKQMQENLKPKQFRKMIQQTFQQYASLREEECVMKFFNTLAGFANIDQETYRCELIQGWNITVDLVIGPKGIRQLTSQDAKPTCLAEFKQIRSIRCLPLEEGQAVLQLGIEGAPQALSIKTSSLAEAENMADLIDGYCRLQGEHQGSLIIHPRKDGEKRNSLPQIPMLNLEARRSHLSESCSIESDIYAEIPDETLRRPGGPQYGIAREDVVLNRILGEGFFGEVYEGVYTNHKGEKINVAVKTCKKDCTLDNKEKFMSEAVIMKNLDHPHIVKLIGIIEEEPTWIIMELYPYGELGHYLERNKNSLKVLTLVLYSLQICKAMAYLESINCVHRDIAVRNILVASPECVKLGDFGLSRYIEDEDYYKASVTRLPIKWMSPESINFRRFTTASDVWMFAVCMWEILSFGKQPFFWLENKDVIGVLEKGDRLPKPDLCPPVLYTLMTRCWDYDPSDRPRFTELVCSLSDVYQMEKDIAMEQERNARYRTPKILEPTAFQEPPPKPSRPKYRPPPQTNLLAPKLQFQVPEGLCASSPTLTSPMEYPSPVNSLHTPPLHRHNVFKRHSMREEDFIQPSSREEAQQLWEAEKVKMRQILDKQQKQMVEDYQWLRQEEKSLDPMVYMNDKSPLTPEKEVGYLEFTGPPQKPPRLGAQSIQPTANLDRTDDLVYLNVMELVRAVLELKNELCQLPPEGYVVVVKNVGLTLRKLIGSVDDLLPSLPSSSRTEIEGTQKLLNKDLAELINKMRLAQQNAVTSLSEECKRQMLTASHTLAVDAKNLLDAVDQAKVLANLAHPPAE
Chain of Cyclin-dependent kinase 5/CDK5 activator 1 (Q00535 whole entry): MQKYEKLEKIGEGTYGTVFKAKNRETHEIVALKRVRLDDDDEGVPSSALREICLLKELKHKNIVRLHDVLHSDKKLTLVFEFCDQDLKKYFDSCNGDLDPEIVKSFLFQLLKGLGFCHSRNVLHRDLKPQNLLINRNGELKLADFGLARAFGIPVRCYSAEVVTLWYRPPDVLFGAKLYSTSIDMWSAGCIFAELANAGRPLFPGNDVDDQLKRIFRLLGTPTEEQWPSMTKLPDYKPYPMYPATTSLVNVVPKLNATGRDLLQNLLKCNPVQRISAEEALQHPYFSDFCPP
Chain of Cyclin-dependent kinase 5/CDK5 activator 1 (Q15078 whole entry, further chain): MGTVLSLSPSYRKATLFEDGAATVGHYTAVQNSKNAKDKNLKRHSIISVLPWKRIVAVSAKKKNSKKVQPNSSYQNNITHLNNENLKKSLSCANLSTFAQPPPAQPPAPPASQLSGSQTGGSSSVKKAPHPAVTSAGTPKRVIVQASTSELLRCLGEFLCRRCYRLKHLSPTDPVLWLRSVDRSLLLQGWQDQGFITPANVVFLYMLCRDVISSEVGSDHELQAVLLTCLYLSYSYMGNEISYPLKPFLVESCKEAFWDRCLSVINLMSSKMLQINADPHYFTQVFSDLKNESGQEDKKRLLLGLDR

O=C1Nc2ccccc2/C1=C/c1c[nH]cn1
IC50 [1]: 8.78 µM (active) | AC50 [2]: 0.268 µM (active) | EC50 [3]: 17.5 µM (active)

Cc1cc(C)c(NC(=O)NC(=O)C(Cl)(Cl)Cl)c(C)c1
EC50 [4]: > 55.7 µM (not active) | EC50 [5]: > 55.7 µM (not active)

COc1ccc(-c2ccc(-c3nnc(-c4cc(OC)ccc4OC)o3)cc2)cc1
AC50 (Trypsin): 10.4 µM (active)

Sc1nccn1-c1ccc(Cl)cc1
IC50 [6]: > 100 µM (inactive) | IC50 [7]: 16.8 µM (active)

C[n+]1c2cc(N)ccc2cc2ccc(N)cc21 [EUFLAVINE]
AC50 (HeLa): 14.7 µM (active) | AC50 (ORF 73): 0.415 µM (active) | EC50 (Insulin-degrading enzyme [8]): > 54.7 µM (inactive) | EC50 (Insulin-degrading enzyme [9]): > 54.7 µM (inactive) | IC50 (HEK293): > 89.2 µM (inactive) | CC50 [10]: 11.6 µM (active) | IC50 [11]: 78.3 µM (active)

COc1cc(/C=N/Nc2nc(-c3ccc(S(=O)(=O)N(C)C)cc3)cs2)ccc1O
EC50 [12]: 17.6 µM (active)
